Consider five molecules from publication PMC6407578, “Synthesis and biological evaluation of ursolic acid derivatives bearing triazole moieties as potential anti-Toxoplasma gondii agents” (Journal of Enzyme Inhibition and Medicinal Chemistry, 2019).

In data set [1] the test system is T. gondii RH strain tachyzoites. The data set is described as follows: In vitro T. gondii growth inhibition in HeLa host cells (MTT). Format: cell-based, Toxoplasma gondii. The following applies: for IC50: Toxoplasma gondii, median inhibitory concentration, tachyzoite inhibition, HeLa host cells, 24 h. Here is the method:
(§1) The cytotoxicity of compounds was determined using the previously published thiazolyl blue-based colorimetric method. For this, HeLa cells were used as host cells and their ability to resist invasion by T. gondii RH strain tachyzoites in vitro was checked. The cells were plated in 96-well plates at an appropriate density to ensure exponential growth throughout the experimental period (3 × 10^3 cells per well) and then allowed to adhere for 24 h at 37 °C. The cells were infected with T. gondii (1.5 × 10^4 tachyzoites/well), followed by incubation for 24 h. All compounds were prepared in dimethyl sulfoxide (DMSO) at a stock concentration of 100 mM. Serial dilutions (1–1000 μM) of each compound were tested. Spiramycin was used as a positive control. After 24 h of incubation, 10 μL of MTT solution were added to each well and cells were incubated for a further 2 h. The optical density (OD) was read on a microplate reader at a wavelength of 492 nm. The IC50 in HeLa cells, IC50 in T. gondii and selectivity index were calculated using Microsoft Excel.

A further data set relates to HeLa cells. The data set is described as follows: Cytotoxicity on HeLa host cells (MTT). Format: cell-based. The following applies: Homo sapiens, HeLa, median toxicity dose, cytotoxicity against host cells, 24 h. Here is the method:
as §1

`COc1ccc(-n2cc(CNC(=O)COC(=O)[C@]34CC[C@@H](C)[C@H](C)[C@H]3C3=CC[C@@H]5[C@@]6(C)CCC(O)C(C)(C)[C@@H]6CC[C@@]5(C)[C@]3(C)CC4)nn2)cc1` (stereo partly drawn) [2c, (1S,2R,4aS,6aS,6bR,8aR,12aR,12bR,14bS)-2-((1–(4-methoxyphenyl)-1H-1,2,3-triazol-4-yl)methylamino)-2-oxoethyl-10-hydroxy-1,2,6a,6b,9,9,12a-heptamethyl-1,2,3,4,4a,5,6,6a,6b,7,8,8a,9,10,11,12,12a,12b,13,14b-icosahydropicene-4a-carboxylate] came in with a melting point of 180 to 181 °C. The same molecule yielded an IC50 in data set [1] greater than 1000 µM. The molecule further came in with an IC50 in the data set with HeLa cells greater than 1000 µM.

Molecule `C[C@H]1[C@H](C)CC[C@]2(C(=O)O)CC[C@]3(C)C(=CC[C@@H]4[C@@]5(C)C/C(=C\c6cn(-c7cccc(F)c7)nn6)C(=O)C(C)(C)[C@@H]5CC[C@]43C)[C@H]12` [1c, (1S,2R,4aS,6aS,6bR,8aR,12aR,12bR,14bS,E)-11-((1–(3-fluorophenyl)-1H-1,2,3-triazol-4-yl)methylene)-1,2,6a,6b,9,9,12a-heptamethyl-10-oxo-1,3,4,5,6,6a,6b,7,8,8a,9,10,11,12,12a,12b,13,14b-octadecahydropicene-4a(2H)-carboxylic acid] returned a melting point greater than 250 °C. In data set [1], the half-maximal inhibitory concentration (IC50) was greater than 1000 µM. The IC50 in the data set on HeLa cells is greater than 1000 µM.

Molecule `COc1ccccc1-n1cc(/C=C2\C[C@]3(C)[C@H]4CC=C5[C@@H]6[C@@H](C)[C@H](C)CC[C@]6(C(=O)O)CC[C@@]5(C)[C@]4(C)CC[C@H]3C(C)(C)C2=O)nn1` [1i, (1S,2R,4aS,6aS,6bR,8aR,12aR,12bR,14bS,E)-11-((1–(2-methoxyphenyl)-1H-1,2,3-triazol-4-yl)methylene)-1,2,6a,6b,9,9,12a-heptamethyl-10-oxo-1,3,4,5,6,6a,6b,7,8,8a,9,10,11,12,12a,12b,13,14b-octadecahydropicene-4a(2H)-carboxylic acid] displayed a melting point greater than 250 °C. The same molecule gave an IC50 in data set [1] greater than 1000 µM. In addition, the IC50 with HeLa cells was greater than 1000 µM.

Turning to `C[C@H]1[C@H](C)CC[C@]2(C(=O)O)CC[C@]3(C)C(=CC[C@@H]4[C@@]5(C)C/C(=C\c6cn(-c7ccccc7)nn6)C(=O)C(C)(C)[C@@H]5CC[C@]43C)[C@H]12` [1a, (1S,2R,4aS,6aS,6bR,8aR,12aR,12bR,14bS,E)-1,2,6a,6b,9,9,12a-heptamethyl-10-oxo-11-((1-phenyl-1H-1,2,3-triazol-4-yl)methylene)-1,3,4,5,6,6a,6b,7,8,8a,9,10,11,12,12a,12b,13,14b-octadecahydropicene-4a(2H)-carboxylic acid], the melting point was greater than 250 °C. In data set [1], this molecule showed a 50% inhibitory concentration (IC50) greater than 1000 µM. This molecule also came in with an IC50 with HeLa cells greater than 1000 µM.

`COc1ccc(-c2nncn2CCOC(=O)[C@]23CC[C@@H](C)[C@H](C)[C@H]2C2=CC[C@@H]4[C@@]5(C)CCC(O)C(C)(C)[C@@H]5CC[C@@]4(C)[C@]2(C)CC3)cc1` (stereo partly drawn) [3e, 2 –(3-(4-methoxyphenyl)-4H-1,2,4-triazol-4-yl)ethyl(1S,2R,4aS,6aS,6bR,8aR,12aR,12bR,14bS)-10-hydroxy-1,2,6a,6b,9,9,12a-heptamethyl-1,3,4,5,6,6a,6b,7,8,8a,9,10,11,12,12a,12b,13,14b-octadecahydropicene-4a(2H)-carboxylate] had a melting point of 233 to 235 °C. The “SI (selectivity index)” value in data set [1] (IC50 in HeLa cells/IC50 in T. gondii) is listed as 0.67. In data set [1], the IC50 is 116 µM. The molecule further yielded an IC50 in the data set with HeLa cells of 78.2 µM.

A word on the IC50: it is the concentration that inhibits the measured activity by half. A low value points to higher potency. In general, melting point refers to the temperature of the solid-liquid transition.
